Measured values: patent publication US20130131179A1, “IRON METABOLISM-IMPROVING AGENT” (Ajinomoto Co., Inc., priority 2006, published 2013)
Counter-ions that a name gives are not always drawn.

Legend:
[1] = tested on: bilateral-kidney-extirpated rats; experiment: Citric acid administration in a dialysis session in bilateral-kidney-extirpated rats
[2] = as above; details: male, CD(SD), rat, plasma, intravenous
[3] = Citric acid administration in bilaterally nephrectomized rats; details: male, CD(SD), rat, plasma, intravenous, 0.25 mL/h of 4.5% (w/v) sodium citrate solution for 4 h
[4] = tested on: bilaterally nephrectomized rats; experiment: as above; details: third group, 4.5% (w/v) sodium citrate solution by CVC 0.25 mL/h for 4 hours

## O=C(O)CC(O)(CC(=O)O)C(=O)O [citric acid, sodium citrate]
[1]; third group versus second group, during 4 h dialysis
  difference of plasma iron concentrations relative to that of second group (saline): about 4 times
[1]; third group, 4.5% (w/v) sodium citrate solution by CVC 1.0 mL/h during 4 h dialysis with commercial dialysate
  difference of plasma iron concentrations between before and after administration: 81 µg/dL
[2]
  concentration at 4 h: 265 µg/mL
[3]
  concentration at 4 h: 211 ± 132 µg/mL
[4]
  difference of plasma iron concentrations between before and after administration: 14 to 18 µg/dL
